This note sets out measurements from patent publication US9682974B2, “Heteroaryl substituted pyrazoles” (BAYER PHARMA AKTIENGESELLSCHAFT, priority 2013, dated 2017).

The target in assay [1] is T1, catalytic domain of human Bub1 (amino acids 704-1085) (Homo sapiens, UniProt O43683).
T1 construct: catalytic domain of human Bub1 (amino acids 704-1085); His6 (N); made in house; host or cells: Hi5 insect cells
The assay can be described thus: Bub1 kinase assay (TR-FRET). It is filed as biochemical. Conditions: 10 μM ATP, 1 μM peptide substrate, read-out: Biological Assay 1: Bub1 kinase assay median IC50. An excerpt: Bub1-inhibitory activities of compounds described in the present invention were quantified using a time-resolved fluorescence energy transfer (TR-FRET) kinase assay which measures phosphorylation of the synthetic peptide Biotin-Ahx-VLLPKKSFAEPG (SEQ ID No. 1) (C-terminus in amide form), purchased from e.g. Biosyntan (Berlin, Germany) by the (recombinant) catalytic domain of human Bub1 (amino acids 704-1085), expressed in Hi5 insect cells with an N-terminal His6-tag and purified by affinity- (Ni-NTA) and size exclusion chromatography.
In a typical assay 11 different concentrations of each compound (0.1 nM, 0.33 nM, 1.1 nM, 3.8 nM, 13 nM, 44 nM, 0.15 μM, 0.51 μM, 1.7 μM, 5.9 μM and 20 μM) were tested in duplicate within the same microtiter plate. To this end, 100-fold concentrated compound solutions (in DMSO) were previously prepared by serial dilution (1:3.4) of 2 mM stocks in a clear low volume 384-well source microtiter plate (Greiner Bio-One, Frickenhausen, Germany), from which 50 nL of compounds were transferred into a black low volume test microtiter plate from the same supplier. Subsequently, 2 μL of Bub1 (the final concentration of Bub1 was adjusted depending on the activity of the enzyme lot in order to be within the linear dynamic range of the assay: typically ˜200 ng/mL were used) in aqueous assay buffer [50 mM Tris/HCl pH 7.5, 10 mM magnesium chloride (MgCl2), 200 mM potassium chloride (KCl), 1.0 mM dithiothreitol (DTT), 0.1 mM sodium ortho-vanadate, 1% (v/v) glycerol, 0.01% (w/v) bovine serum albumine (BSA), 0.005% (v/v) Trition X-100 (Sigma), 1× Complete EDTA-free protease inhibitor mixture (Roche)] were added to the compounds in the test plate and the mixture was incubated for 15 min at 22° C. to allow pre-equilibration of the putative enzyme-inhibitor complexes before the start of the kinase reaction, which was initiated by the addition of 3 μL 1.67-fold concentrated solution (in assay buffer) of adenosine-tri-phosphate (ATP, 10 μM final concentration) and peptide substrate (1 μM final concentration). The resulting mixture (5 μL final volume) was incubated at 22° C. during 60 min., and the reaction was stopped by the addition of 5 μL of an aqueous EDTA-solution (50 mM EDTA, in 100 mM HEPES pH 7.5 and 0.2% (w/v) bovine serum albumin) which also contained the TR-FRET detection reagents (0.2 μM streptavidin-XL665 [Cisbio Bioassays, Codolet, France] and 1 nM anti-phosho-Serine antibody [Merck Millipore, cat. #35-001] and 0.4 nM LANCE EU-W1024 labeled anti-mouse IgG antibody [Perkin-Elmer, product no. AD0077, alternatively a Terbium-cryptate-labeled anti-mouse IgG antibody from Cisbio Bioassays can be used]). The stopped reaction mixture was further incubated 1 h at 22° C. in order to allow the formation of complexes between peptides and detection reagents. Subsequently, the amount of product was evaluated by measurement of the resonance energy transfer from the Eu-chelate-antibody complex recognizing the Phosphoserine residue to the streptavidin-XL665 bound to the biotin moiety of the peptide. To this end, the fluorescence emissions at 620 nm and 665 nm after excitation at 330-350 nm were measured in a TR-FRET plate reader, e.g. a Rubystar or Pherastar (both from BMG Labtechnologies, Offenburg, Germany) or a Viewlux (Perkin-Elmer) and the ratio of the emissions (665 nm/622 nm) was taken as indicator for the amount of phosphorylated substrate. The data were normalised using two sets of (typically 32-) control wells for high- (=enzyme reaction without inhibitor=0%=Minimum inhibition) and low- (=all assay components without enzyme=100%=Maximum inhibition) Bub1 activity. […] values were calculated by fitting the normalized inhibition data to a 4-parameter logistic equation (Minimum, Maximum, IC50, Hill; Y=Max+(Min−Max)/(1+(X/IC50)Hill)).
On the technique in general: TR-FRET usually uses a lanthanide donor and a delayed reading to cut background.

Assay [2] has as its system HeLa human cervical cancer cell line. The assay can be described thus: Proliferation assay (HeLa cell line), crystal violet staining. It is filed as cell-based. Conditions: 96 h, HeLa cells, 4 days incubation, read-out: Biological Assay 2: Proliferation assay (HeLa cell line) median IC50. As to the method: Cultivated tumor cells (cells were ordered from ATCC) were plated at a density of 3000 cells/well in a 96-well multititer plate in 200 μL of growth medium supplemented 10% fetal calf serum. After 24 hours, the cells of one plate (zero-point plate) were stained with crystal violet (see below), while the medium of the other plates was replaced by fresh culture medium (200 μL), to which the test substances were added in various concentrations (0 μM, as well as in the range of 0.001-10 μM; the final concentration of the solvent dimethyl sulfoxide was 0.5%). The cells were incubated for 4 days in the presence of test substances. Cell proliferation was determined by staining the cells with crystal violet: the cells were fixed by adding 20 μL/measuring point of an 11% glutaric aldehyde solution for 15 minutes at room temperature. After three washing cycles of the fixed cells with water, the plates were dried at room temperature. The cells were stained by adding 100 μL/measuring point of a 0.1% crystal violet solution (pH 3.0). After three washing cycles of the stained cells with water, the plates were dried at room temperature. The dye was dissolved by adding 100 μL/measuring point of a 10% acetic acid solution. Absorbtion was determined by photometry at a wavelength of 595 nm. The change of cell number, in percent, was calculated by normalization of the measured values to the absorbtion values of the zero-point plate (=0%) and the absorbtion of the untreated (0 μm) cells (=100%). The IC50 values were determined by means of a 4 parameter fit.

T1 sequence (O43683 704-1085): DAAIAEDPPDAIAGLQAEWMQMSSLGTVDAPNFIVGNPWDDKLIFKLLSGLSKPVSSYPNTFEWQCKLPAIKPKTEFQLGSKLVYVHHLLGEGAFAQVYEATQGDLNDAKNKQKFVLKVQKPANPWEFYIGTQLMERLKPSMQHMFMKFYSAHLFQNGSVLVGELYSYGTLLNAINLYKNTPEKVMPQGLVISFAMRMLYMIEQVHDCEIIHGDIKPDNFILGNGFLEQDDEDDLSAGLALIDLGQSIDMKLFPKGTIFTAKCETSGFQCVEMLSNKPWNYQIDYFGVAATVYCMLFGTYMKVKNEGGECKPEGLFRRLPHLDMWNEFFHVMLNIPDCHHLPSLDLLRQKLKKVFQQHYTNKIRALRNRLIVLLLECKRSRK

Consider `CCOc1cc(F)c(Cn2nc(-c3cc(Nc4ccncn4)n(CCN4CCOCC4)n3)c(C)c2C2CC2)c(F)c1` [Example 2-1-1, 5′-cyclopropyl-1′-(4-ethoxy-2,6-difluorobenzyl)-4′-methyl-1-[2-(morpholin-4-yl)ethyl]-N-(pyrimidin-4-yl)-1H,1′H-3,3′-bipyrazol-5-amine], for which the IC50 in assay [1] worked out at 0.68 µM.
Take `CCOc1cc(F)c(Cn2nc(-c3cc(Nc4ccncn4)n(CCS(C)(=O)=O)n3)c(C)c2C2CC2)c(F)c1` [Example 2-2-1, 5′-cyclopropyl-1′-(4-ethoxy-2,6-difluorobenzyl)-4′-methyl-1-[2-(methylsulfonyl)ethyl]-N-(pyrimidin-4-yl)-1H,1′H-3,3′-bipyrazol-5-amine]: the IC50 in assay [1] was at least 20 µM.
For the molecule `CCOc1cc(F)c(Cn2nc(-c3cc(Nc4ccncn4)n(C)n3)c(C)c2C2CC2)c(F)c1` [Example 2-1-4, 5′-cyclopropyl-1′-(4-ethoxy-2,6-difluorobenzyl)-1,4′-dimethyl-N-(pyrimidin-4-yl)-1H,1′H-3,3′-bipyrazol-5-amine], the IC50 in assay [1] worked out at 0.034 µM.
With `Fc1ccccc1Cn1nc(-c2nsc(Nc3ccncc3)n2)c2ccccc21` [Example 2-7-1, N-{3-[1-(2-fluorobenzyl)-1H-indazol-3-yl]-1,2,4-thiadiazol-5-yl}-pyridin-4-amine], the IC50 in assay [1] amounted to 2.2 µM; in assay [2] it was 9.1 µM.
Take `CCOc1cc(F)c(Cn2nc(-c3cc(Nc4ccncn4)n(CC(=O)O)n3)c(C)c2C2CC2)c(F)c1` [Example 2-1-3, [5′-cyclopropyl-1′-(4-ethoxy-2,6-difluorobenzyl)-4′-methyl-5-(pyrimidin-4-ylamino)-1H,1′H-3,3′-bipyrazol-1-yl]acetic acid]: the figures for the IC50 in assay [1] and in assay [2] were 1.1 µM and above 10 µM, respectively.
As to `CCOc1cc(F)c(Cn2nc(-c3nc(Nc4ccncc4)n(CCOC)n3)c(C)c2C2CC2)c(F)c1` [Example 2-3-2, N-{3-[5-cyclopropyl-1-(4-ethoxy-2,6-difluorobenzyl)-4-methyl-1H-pyrazol-3-yl]-1-(2-methoxyethyl)-1H-1,2,4-triazol-5-yl}pyridin-4-amine], the IC50 in assay [1] was 0.012 µM; in assay [2], above 10 µM.
As to `CCOc1cc(F)c(Cn2nc(-c3cc(Nc4ccncc4)n(C)n3)c(C)c2C2CC2)c(F)c1` [Example 2-3-1, 5′-cyclopropyl-1′-(4-ethoxy-2,6-difluorobenzyl)-1,4′-dimethyl-N-(pyridin-4-yl)-1H,1′H-3,3′-bipyrazol-5-amine], the IC50 in assay [1] came to 0.39 µM; in assay [2], 3.5 µM.
In the case of `CCOC(=O)c1cnccc1Nc1nc(-c2nn(Cc3c(F)cc(OCC)cc3F)c(C3CC3)c2C)nn1CCOC` [Example 2-4-1, ethyl 4-({3-[5-cyclopropyl-1-(4-ethoxy-2,6-difluorobenzyl)-4-methyl-1H-pyrazol-3-yl]-1-(2-methoxyethyl)-1H-1,2,4-triazol-5-yl}amino)nicotinate], the IC50 in assay [1] worked out at 0.091 µM.
The same measure, in the same setting: next, `CCOc1cc(F)c(Cn2nc(-c3n[nH]c(Nc4ccncc4)n3)c(C)c2C2CC2)c(F)c1` [Example 2-3-4, N-{3-[5-cyclopropyl-1-(4-ethoxy-2,6-difluorobenzyl)-4-methyl-1H-pyrazol-3-yl]-1H-1,2,4-triazol-5-yl}pyridin-4-amine]: 0.082 µM.
Take `CCOc1cc(F)c(Cn2nc(-c3nc(Nc4ccncc4)n(CCO)n3)c(C)c2C2CC2)c(F)c1` [Example 2-3-3, 2-{3-[5-cyclopropyl-1-(4-ethoxy-2,6-difluorobenzyl)-4-methyl-1H-pyrazol-3-yl]-5-(pyridin-4-ylamino)-1H-1,2,4-triazol-1-yl}ethanol]: the IC50 in assay [1] was 0.022 µM; in assay [2], above 10 µM.
Turning to `CCOc1cc(F)c(Cn2nc(-c3nc(Nc4ccncc4)nn3CCOC)c3ccccc32)c(F)c1` [Example 2-5-2, N-{5-[1-(4-ethoxy-2,6-difluorobenzyl)-1H-indazol-3-yl]-1-(2-methoxyethyl)-1H-1,2,4-triazol-3-yl}pyridin-4-amine], the IC50 in assay [1] came out at 0.6 µM.
Turning to `CCOc1cc(F)c(Cn2nc(-c3cc(Nc4ccncn4)n(C(C)=O)n3)c(C)c2C2CC2)c(F)c1` [Example 2-1-2, 1-[5′-cyclopropyl-1′-(4-ethoxy-2,6-difluorobenzyl)-4′-methyl-5-(pyrimidin-4-ylamino)-1H,1′H-3,3′-bipyrazol-1-yl]ethanone], the IC50 in assay [1] was at least 20 µM; in assay [2] it was above 10 µM.
Turning to `CCOc1cc(F)c(Cn2nc(-c3nc(Nc4ccncc4)n(CCOC)n3)c3ccccc32)c(F)c1` [Example 2-5-1, N-{3-[1-(4-ethoxy-2,6-difluorobenzyl)-1H-indazol-3-yl]-1-(2-methoxyethyl)-1H-1,2,4-triazol-5-yl}pyridin-4-amine], the IC50 in assay [1] is 0.013 µM.
`CCOc1cc(F)c(Cn2nc(-n3cc(Nc4ccncn4)cn3)c3ccccc32)c(F)c1` [Example 2-6-1, N-{1-[1-(4-ethoxy-2,6-difluorobenzyl)-1H-indazol-3-yl]-1H-pyrazol-4-yl}pyrimidin-4-amine]: the IC50 in assay [1] is 0.026 µM; in assay [2], above 10 µM.
